Measured values as given in patent US20060229358A1, “Pharmaceutical composition containing flavonoids” (Taipei Medical University, priority 2005, published 2006).
Read-outs that look alike come from different tables or passages of the source.

What was measured:
[1] = tested on: high affinity rolipram binding sites (HARBS, PDE4H); assay: Binding to particulate HARBS of whole brain, displacement of [3H]-rolipram (Assay II); parameters: species or system guinea pig; conditions: HARBS 50% binding concentration over PDE4 IC50
Description: (§1) The binding experiments are carried on basis of the methods of Schneider et al. and Zhao et al. with a small modification. Under a protocol approved by the Animal Care and Use Committee of Taipei Medical University, five male guinea pigs (Hartley), weighing 500-600 g, were anesthetized. The whole brains taken therefrom were homogenized with in 10 volumes of cold medium (pH 6.5) containing 20 mM Bis-Tris, 2 mM benzamidine, 2 mM EDTA, 50 mM sodium chloride, 0.1 mM phenylmethanesulfonyl fluoride (PMSF), and 1 mM dithiothreitol. At 4° C., the homogenate was centrifuged at 170 g for 15 min for removing blood vessels and connective tissues, and the supernatant thereof was then re-centrifuged at 40,000 g for 30 min for separating the particulates from the cytosol of cells.
(§2) After incubation, the reaction was stopped by transferring the reaction vessel to a bath of crashed ice. Then the reaction mixture was filtered through a punched glass fiber filter (Whatman GF/B) placed in a mini funnel, which was adopted to a 1.5 ml of Eppendorff's tube for collecting the filtrate in the mini centrifuge at 1000 rpm for 10 seconds. By the same way (centrifugation), it is further washed with 0.3 ml reaction buffer each for three times. The Whatman GF/B filter was mixed with 2 ml of cocktail and counted by the β-scintillation counter (Backman, Fullerton, Calif., USA) for counting the radioactivity thereof.

[2] = target: T1, high affinity rolipram binding sites (HARBS, PDE4H); assay: as above; parameters: species or system guinea pig; conditions: for IC50: guinea pig whole brain particulates; for bound to HARBS of the whole brain cell particulates: 300 μM, guinea pig, preliminary experimental data
T1 construct: IC50 for displacement of [3H]-rolipram from HARBS; other: 300 μM, guinea pig, preliminary experimental data; other: guinea pig whole brain particulates; over 300 μM not available due
Description: as §1, §2

PDE4L (LARBS) = tested on: T2, PDE4L (LARBS); assay: Binding to peripheral LARBS (PDE4L); conditions: considered equal to the PDE4 IC50
T2 construct: other: considered equal to the PDE4 IC50
From the text: [21]. […] In the brain, there are two binding sites for rolipram, which are high (HARBS) and low affinity rolipram binding sites (LARBS), while in the periphery of bronchi and lung there exist only LARBS. Generally, the anti-inflammatory and the bronchodilatory effects of rolipram are considered as its ability to bind with LARBS [21].

[3] = tested on: OVA-induced contractions of sensitized guinea pig trachea; assay: Cumulative OVA-induced contractions of isolated sensitized trachea in vitro (Assay IV); conditions: FIG. 4
From the text: The guinea pigs were ready for use after day 25 [20]. Under a protocol approved by the Animal Care and Use Committee of Taipei Medical University, the tracheae of guinea pigs (Hartley) were sacrificed and removed therefrom. The tracheae were carefully trimmed off the excessive surrounding tissues and cut into six segments. Each segment consisted of three cartilage rings. All segments were cut open opposite the trachealis. […] The composition of the normal Krebs solution was (mM): […] The tissues were suspended in normal Krebs solution under an initial tension of 1.5 g and allowed to equilibrate for at least 1 h with washing at 15-min intervals. After the tissues were precontracted with KCl (60 mM) and washed with normal Krebs solution, OVA (0.1-100 μg/ml) was cumulatively added, and contractions were allowed to reach a steady state at each concentration. […] The tension of precontraction induced by KCl before experiment was set as 100%.

[4] = 2 nM [3H]-rolipram, FIG. 2, read-out: IC50 for displacement of [3H]-rolipram from HARBS
[5] = over 300 μM not available due to solubility, read-out: concentration for having 50% of HARBS bound

Row | SMILES | PDE4H/PDE4L ratio [1] | IC50 [2, 4] | bound to HARBS of the whole brain cell particulates [2] | IC50 [2, 5] | concentration for binding to an half of the LARBS (PDE4L (LARBS)) | OVA (both 10 and 100 μg/ml)-induced contractions ([3]; 30 μM preincubated 15 min) | OVA (100 μg/ml)-induced contractions ([3]; 3~30 μM preincubated 15 min, standardized by 60 mM KCl)
1 | COc1cc(O)c2c(=O)c(-c3ccc(O)cc3)coc2c1 [Prunetin] | greater than 5 | > 300 µM | 24.2% | > 300 µM | 61.9 µM | – | –
2 | COc1ccc(C2CC(=O)c3c(O)cc(O)cc3O2)cc1O (centres unmarked) [Hesperetin] | – | > 300 µM | 17.5% | > 300 µM | 28.2 µM | significantly antagonized | antagonized
